Source: publication PMC10137179, “Assessment of Covalently Binding Warhead Compounds in the Validation of the Cytomegalovirus Nuclear Egress Complex as an Antiviral Target” (Cells, 2023)
Read-outs that look alike come from different tables or passages of the source.

Columns and labels:
[1] = tested on: HCMV AD169-GFP; test: microbe, parasite or virus in culture; type: cell-based, human cytomegalovirus (HCMV); conditions: for SI: selectivity index CC50/EC50, AD169-GFP
Protocol: (§1) Cytotoxicity of the analyzed compounds was determined by the Neutral Red dye uptake assay. A total of 1.35 × 10^5 HFFs per well were seeded in 96-well plates 1 d prior to analysis, cultivated overnight until cells were confluent and then incubated with compounds for 7 days. The assay was performed as described previously using 40 μg/mL Neutral Red (Sigma Aldrich). The quantity of dye incorporation was determined using the Victor X4 microplate reader (PerkinElmer, Waltham, MA, USA) by fluorescence measurement at 560/630 nm for excitation/emission, respectively. To assess antiviral activity of compounds, HFFs seeded in 96-well plates (1.35 × 10^5 HFFs per well) were infected with HCMV AD169-GFP or TB40-IE2-YFP to reach 25–50% infected cells at 7 days post-infection (d p.i.). After incubation with the infectious inoculum for 1.5 h at 37 °C, compounds were added in serial dilutions. At 7 d p.i., cells were fixed for 10 min at room temperature using 10% formalin. Finally, cells were washed once with PBS followed by automated fluorescence quantitation.
Seeking for a novel group of potential antiviral agents, small molecules with covalent protein-binding activity were investigated. These small molecules, originally developed as kinase inhibitors, carry a so-called warhead moiety as an important functional group, such as the prototype afatinib (Figure 1A, red circle). In this study, a series of newly generated warhead compounds (most of which are the property of B.K./Lead Discovery Center, Dortmund, Germany) were used for an evaluation of putative antiviral and core NEC-inhibitory properties. In a first step, the antiviral activity of warheads was analyzed against HCMV TB40-IE2-YFP (Figure 1B) and AD169-GFP (Figure 1C). To this end, HFFs were infected with either of the two viral strains before the GFP or YFP reporter signals were measured at 7 d p.i. (in parallel, putative compound cytotoxicity was determined by Neutral Red assay). The HCMVs AD169-GFP and TB40-IE2-YFP, based on BAC-derived recombinants of the laboratory strains AD169 and TB40, respectively, were both propagated on HFFs, and the produced stocks were then used as two reporter viruses for the assessement of antiviral drug activity. While strain AD169 is mainly restricted in its tropism to fibroblasts, TB40 tropism can be extended to fibroblasts and epithelial and endothelial cells. Here, the use of two strains was intended to illustrate the assumption that antiviral activity of these warhead compounds may be directed to conserved viral target proteins, thus pointing out a minor impact of strains.
(A) Chemical structure of a clinically approved prototype of covalently binding warhead inhibitors, […], afatinib/Gilotrif®. The red circle identifies a functionally active α-, β-unsaturated carbonyl group. (B) At 7 d p.i., compounds were analyzed for their cytotoxicity (orange) and antiviral activity (blue) during HCMV infection, using TB40-IE2-YFP as a reporter virus. Cell viability was assessed through Neutral Red staining of uninfected cells. Measurements were performed in quadruplicate (YFP fluorometry) or triplicate (Neutral Red assay), and standard deviations of mean values are given; EC50, CC50 and SI values are indicated accordingly. (C) In a parallel series of analyses, HCMV AD169-GFP was used as another reporter virus representing a second viral strain. […] HCMV AD169-GFP-infected HFFs were treated with 0.1 µM to 50 µM of the compounds (in parallel Neutral Red assay, 0.1 µM to 100 µM), before the signal assessments were performed at 7 d p.i.

[2] = in vitro; type: cell-based, human; conditions: human
Protocol: as §1

[3] = tested on: HCMV pUL53 nuclear rim localization; test: Confocal imaging of pUL53 localization in HCMV AD169-infected HFFs; type: cell-based
Protocol: HFF or HFF-UL50 cells, either Dox-induced or uninduced, were seeded in 6-well plates with a density of 2 × 10^5 cells per well, grown on coverslips and infected with HCMV AD169 or AD169 ∆UL50-ΣUL53. For infection experiments with the recombinant virus, different Shield-1 and Dox conditions were analyzed. Antivirals were added post-infection as described for the experiments. For transfection experiments, HeLa cells were seeded on coverslips in 6-well plates with a density of 3.25 × 10^5 cells per well for cotransfection with the indicated NEC expression plasmids (HSV-1 HA-UL34 + Flag-UL31, HCMV pUL50-HA + pUL53-Flag and EBV HA-BFRF1 + Flag-BFLF2). At indicated time points after virus infection, or 3 days post-transfection, cells were fixed, applied for IF staining as described previously and analyzed using a TCS SP5 confocal laser-scanning microscope with Leica LAS AF software (Leica Microsystems, Wetzlar, Germany). […] The device features a Leica photomultiplier tube (PMT) and a hybrid detector (HyD). Images were further processed using Photoshop CS5 (Adobe Inc., San José, CA, USA). Primary and secondary antibodies used for staining were mAb-UL53.01 (kindly provided by S. Jonjic and T. Lenac Rovis, Rijeka, Croatia), mAb-lamin A/C (ab108595, Abcam, Cambridge, UK), mAb-HA (Clone 7, H9658, Sigma-Aldrich, St. Louis, MO, USA), pAb-Flag (F7425, Sigma-Aldrich, St. Louis, MO, USA), anti-mouse Alexa 555 (A21422, Thermo Fisher Scientific, Waltham, MA, USA) and anti-rabbit Alexa 488 (A11034, Thermo Fisher Scientific, Waltham, MA, USA). Microscopic counting was performed for quantitation of colocalization patterns of two different proteins, as achieved by counting 50 cells per biological triplicate.

[4] = tested on: HCMV TB40-IE2-YFP; test: microbe, parasite or virus in culture; type: cell-based, human cytomegalovirus (HCMV)
Protocol: Cytotoxicity of the analyzed compounds was determined by the Neutral Red dye uptake assay. A total of 1.35 × 10^5 HFFs per well were seeded in 96-well plates 1 d prior to analysis, cultivated overnight until cells were confluent and then incubated with compounds for 7 days. The assay was performed as described previously using 40 μg/mL Neutral Red (Sigma Aldrich). The quantity of dye incorporation was determined using the Victor X4 microplate reader (PerkinElmer, Waltham, MA, USA) by fluorescence measurement at 560/630 nm for excitation/emission, respectively. […] Finally, cells were washed once with PBS followed by automated fluorescence quantitation.
Seeking for a novel group of potential antiviral agents, small molecules with covalent protein-binding activity were investigated. […] In a first step, the antiviral activity of warheads was analyzed against HCMV TB40-IE2-YFP (Figure 1B) and AD169-GFP (Figure 1C). To this end, HFFs were infected with either of the two viral strains before the GFP or YFP reporter signals were measured at 7 d p.i. (in parallel, putative compound cytotoxicity was determined by Neutral Red assay). […]
(A) Chemical structure of a clinically approved prototype of covalently binding warhead inhibitors, LDC580, afatinib/Gilotrif®. […] Cell viability was assessed through Neutral Red staining of uninfected cells. […]

[5] = tested on: HFFs; test: in vitro; type: cell-based, human
Protocol: as §1

[6] = tested on: HFF-UL50, HFFs, MRC-5 and 293T cells; test: Neutral Red cytotoxicity of Shield-1 on four cell types; conditions: Shield-1 0.04–10 µM, 4 (293T) or 7 d post-treatment
Protocol: Analysis of putative cytotoxicity of the synthetic ligand Shield-1 on different cell
types. Four different types of cells (recombinant complementing cells HFF-UL50, primary HFFs and
and MRC-5 cells, and immortalized 293T) were treated with various concentrations of Shield-1
(0.04–10 µM as shown on the right). At 4 (293T) or 7 d post-treatment, cell viability was assessed by
Neutral Red staining. Data are presented as mean values ± SD over three biological replicates.
Cytotoxic staurosporine (STP, 1 µM) served as a positive control, DMSO-treated cells as a negative

[7] = target: T1, pUL50–pUL53 interaction (LgBiT::UL53-Flag + SmBiT::UL50-HA) (Human cytomegalovirus, UniProt P16791); type: cell-based; conditions: 293T cells, 5×, 1× or 0.2× anti-HCMV EC50 levels, full-length LgBiT::UL53-Flag
T1 construct: expressed in transfected cells; host or cells: 293T

[8] = target: T2, pUL50–pUL53 interaction (LgBiT::UL53(1–87)-Flag + SmBiT::UL50-HA) (Human cytomegalovirus, UniProt P16791); type: cell-based; conditions: 293T cells, 5×, 1× or 0.2× anti-HCMV EC50 levels, truncated LgBiT::UL53(1–87)-Flag
T2 construct: expressed in transfected cells; host or cells: 293T

[9] = target: T3, SmBiT::UL50-HA (human cytomegalovirus (HCMV), UniProt P16791 1-397); test: split reporter (BiFC, NanoBiT); NanoBiT in 293T cells cotransfected with LgBiT and SmBiT constructs; NanoGlo Live Cell Assay, luminescence at 37 °C; background of LgBiT without SmBiT subtracted; some samples with warhead compounds (LDC compounds, ibrutinib and others); conditions: partners not purified
T3 construct: also called pUL50; HCMV core NEC groove protein; source: 293T cells, transiently transfected (PEI), in live cells
T3 sequence: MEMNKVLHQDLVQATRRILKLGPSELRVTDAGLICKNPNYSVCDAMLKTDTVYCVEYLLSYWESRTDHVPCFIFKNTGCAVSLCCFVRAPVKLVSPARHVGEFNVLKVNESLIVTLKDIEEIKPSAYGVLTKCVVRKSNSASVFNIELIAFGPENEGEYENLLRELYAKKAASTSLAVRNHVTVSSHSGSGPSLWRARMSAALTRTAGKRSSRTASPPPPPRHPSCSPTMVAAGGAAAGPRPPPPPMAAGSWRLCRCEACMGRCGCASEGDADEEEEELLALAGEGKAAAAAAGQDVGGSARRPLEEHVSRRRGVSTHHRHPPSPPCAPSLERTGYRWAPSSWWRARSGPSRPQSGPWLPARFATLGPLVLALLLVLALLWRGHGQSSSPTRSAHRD

[10] = AD169-GFP-infected HFFs, 7 d p.i., 0.1 µM to 50 µM
[11] = Human betaherpesvirus 5, AD169, 168 h, clinically relevant warheads, 0.1 µM to 50 µM, AD169-GFP-infected HFFs, 7 d p.i.
[12] = HFFs infected with HCMV AD169 (MOI 0.1), 5 d p.i.

## COC(=O)[C@]12CCC(C)(C)C[C@H]1[C@H]1C(=O)C=C3[C@@]4(C)C=C(C#N)C(=O)C(C)(C)[C@@H]4CC[C@@]3(C)[C@]1(C)CC2 [CDDO-Me, 2-cyano-3,12-dioxooleana-1,9(11)-dien-28-oic acid methyl ester]
[1]; [10]
  antiviral activity (in words): no notable antiviral activity
[1]; [11]
  EC50: < 0.4 µM
[2]
  CC50 at 7 days: > 0.8 µM

## CCOc1cc(/C=c2\sc3n(c2=O)C(c2ccccc2OC)C(C(C)=O)=C(C)N=3)ccc1O (centres unmarked) [LDC492]
[3]; HCMV AD169 MOI 0.1, 5 d p.i., concentrations of partial-grade antiviral activity, 50 cells counted per biological triplicate
  cells with partial or predominant dot-like localization of pUL53 within the nucleoplasm: more than 50%
[4]; HFFs infected with HCMV TB40-IE2-YFP, 7 d p.i., YFP fluorometry, read-out: EC50
  EC50: > 10 µM
[1]; HFFs infected with HCMV AD169-GFP, 7 d p.i., investigational LDC warheads, read-out: EC50
  EC50: 8.9 ± 6.6 µM
[5]
  CC50: > 10 µM

## CN(C)C/C=C/C(=O)Nc1cc2c(Nc3ccc(F)c(Cl)c3)ncnc2cc1O[C@H]1CCOC1 [LDC580, afatinib]
[3]; [12]
  pUL53 localization (in words): no comparable effect
[4]; Human betaherpesvirus 5, 168 h
  EC50: 0.8 µM
[1]; Human betaherpesvirus 5, AD169, 168 h, HFFs infected with HCMV AD169-GFP, 7 d p.i., investigational LDC warheads
  EC50: 0.6 µM
[2]; CC50
  CC50 at 7 days: > 10 µM
[5]; human, 7 days
  CC50: ~9 µM

## CC(C)Nc1nc2cc(Cl)c(Cl)cc2n1[C@H]1O[C@@H](CO)[C@H](O)[C@@H]1O [MBV, maribavir]
[3]; [12]
  pUL53 localization (in words): predominant dot-like structures
[3]; HFFs infected with HCMV AD169 (MOI 0.1), 5 d p.i., called preliminary
  intranucleoplasmic coaggregation of lamin A/C (in words): also visible

## CC[C@H](C(=O)N1CCCC[C@H]1C(=O)O[C@H](CCc1ccc(OC)c(OC)c1)c1cccc(OCCN2CCOCC2)c1)c1cc(OC)c(OC)c(OC)c1 [Shield-1]
[6]
  cytotoxic potential (in words): low cytotoxic potential

## C=C1C(=O)O[C@@H]2C[C@@]3(C)CCC[C@H](C)C3=C[C@H]12 [alantolactone]
[7]
  inhibitory effect on NanoBiT interaction signal (in words): very minor or no effects
[1]; [11]
  EC50: 3.2 ± 1.3 µM
[8]
  inhibitory effect on NanoBiT interaction signal (in words): very minor or no effects
[2]
  CC50 at 7 days: 23 ± 5 µM

## CCN(CC)C(=O)/C(C#N)=C/c1cc(O)c(O)c([N+](=O)[O-])c1 [entacapone]
[1]; [10]
  antiviral activity (in words): no notable antiviral activity
[1]; [11]
  EC50: > 50 µM
[1]; clinically relevant warheads
  SI: inactive
[2]; CC50
  CC50 at 7 days: 93 ± 4 µM

## CCOc1cc2ncc(C#N)c(Nc3ccc(OCc4ccccn4)c(Cl)c3)c2cc1NC(=O)/C=C/CN(C)C [neratinib]
[1]; [11]
  EC50: 0.3 ± 0.1 µM
[2]; CC50
  CC50 at 7 days: 37 ± 1 µM

## C=CC(=O)Nc1cc(Nc2nccc(-c3cn(C)c4ccccc34)n2)c(OC)cc1N(C)CCN(C)C [osimeritinib]
[7]
  inhibitory effect on NanoBiT interaction signal (in words): very minor or no effects
[1]; [11]
  EC50: 1 ± 0.8 µM
[8]
  inhibitory effect on NanoBiT interaction signal (in words): very minor or no effects
[2]; clinically relevant warheads, 0.1 µM to 100 µM, Neutral Red, uninfected HFFs, 7 d, read-out: CC50
  CC50 at 7 days: 23 µM

## C=C1C(=O)O[C@H]2[C@H]1CC/C(C)=C/CC[C@@]1(C)O[C@@H]21 [parthenolide]
[1]; [10]
  antiviral activity (in words): no notable antiviral activity
[1]; [11]
  EC50: 6.7 ± 3.4 µM
[2]; CC50
  CC50 at 7 days: 9 ± 0.4 µM

## C=CC(=O)N1CCN(c2nc(=O)n(-c3c(C)ccnc3C(C)C)c3nc(-c4c(O)cccc4F)c(F)cc23)[C@@H](C)C1 [sotorasib]
[1]; [10]
  antiviral activity (in words): no notable antiviral activity
[1]; [11]
  EC50: > 50 µM
[1]; clinically relevant warheads
  SI: inactive
[2]; CC50
  CC50 at 7 days: 95 ± 12 µM

## COC[C@H]1OC(=O)c2coc3c2[C@@]1(C)C1=C(C3=O)[C@@H]2CCC(=O)[C@@]2(C)C[C@H]1OC(C)=O [wortmannin]
[1]; [10]
  antiviral activity (in words): no notable antiviral activity
[1]; Human betaherpesvirus 5, AD169, 168 h
  EC50: > 50 µM
[1]; clinically relevant warheads
  SI: inactive
[2]
  CC50 at 7 days: > 100 µM

B1: LgBiT::UL53(1–87)-Flag (domain or fragment)
chain: MSSVSGVRTPRERRSALRSLLRKRRQRELASKVASTVNGATSANNHGEPPSPADARPRLTLHDLHDIFREHPELELKYLNMMKMAIT
notes: source: 293T cells, transiently transfected (PEI), in live cells
[9]
  NanoBiT signal strength relative to LgBiT::UL53-Flag + SmBiT::UL50-HA (100%): 288%
